The target in this experiment is IDO1 (Homo sapiens, UniProt P14902). Description: IDO1 Cellular Assay in HeLa Cells Stimulated with IFNγ. The class given is cell-based. The following applies: IFNγ 100 ng/mL, 300 uM L-tryptophan, about 48 hours, fluorescence readout, read-out: IDO1 HELA Cell Assay, IC50.
Sequence of IDO1 (P14902 whole entry): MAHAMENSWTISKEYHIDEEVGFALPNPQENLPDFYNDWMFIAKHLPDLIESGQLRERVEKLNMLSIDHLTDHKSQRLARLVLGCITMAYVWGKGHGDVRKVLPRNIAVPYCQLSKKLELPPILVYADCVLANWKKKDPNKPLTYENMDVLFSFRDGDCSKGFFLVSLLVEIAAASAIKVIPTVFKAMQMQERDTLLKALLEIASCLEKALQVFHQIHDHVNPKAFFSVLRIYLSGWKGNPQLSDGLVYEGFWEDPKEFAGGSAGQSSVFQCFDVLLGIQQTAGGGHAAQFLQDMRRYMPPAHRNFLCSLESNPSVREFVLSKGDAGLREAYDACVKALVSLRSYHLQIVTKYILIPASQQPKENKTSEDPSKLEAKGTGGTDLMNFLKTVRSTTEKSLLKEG

As for `C[C@@H]1CN(C(=O)c2nn(CC(=O)N3CCC(c4c(F)ccc(F)c4F)CC3)c3c2CCC3)C[C@H](C)O1` [Example 152, 2-{3-[(2R,6S)-2,6-dimethylmorpholine-4-carbonyl]-5,6-dihydrocyclopenta[c]pyrazol-1(4H)-yl}-1-[4-(2,3,6-trifluorophenyl)piperidin-1-yl]ethan-1-one], the IC50 came to 126 nM. Regarding `C[C@@H]1CN(C(=O)c2nn(CC(=O)N3CCC(c4cccc5c4OC(F)(F)O5)CC3)c3c2CCC3)C[C@H](C)O1` [Example 153, 1-[4-(2,2-difluoro-2H-1,3-benzodioxol-4-yl)piperidin-1-yl]-2-{3-[(2R,6S)-2,6-dimethylmorpholine-4-carbonyl]-5,6-dihydrocyclopenta[c]pyrazol-1(4H)-yl}ethan-1-one], the IC50 worked out at 138 nM. In the case of `C[C@@H]1CN(C(=O)c2nn(CC(=O)N3CCC(c4cc(F)c(F)cc4Cl)CC3)c3c2CCC3)C[C@H](C)O1` [Example 154, 1-[4-(2-chloro-4,5-difluorophenyl)piperidin-1-yl]-2-{3-[(2R,6S)-2,6-dimethylmorpholine-4-carbonyl]-5,6-dihydrocyclopenta[c]pyrazol-1(4H)-yl}ethan-1-one], the half-maximal inhibitory concentration (IC50) amounted to 142 nM. On to `Cc1cc(C)cc(C2CCN(C(=O)Cn3nc(C(=O)N4C[C@@H](C)O[C@@H](C)C4)c4c3CCC4)CC2)c1` [Example 155, 2-{3-[(2R,6S)-2,6-dimethylmorpholine-4-carbonyl]-5,6-dihydrocyclopenta[c]pyrazol-1(4H)-yl}-1-[4-(3,5-dimethylphenyl)piperidin-1-yl]ethan-1-one], for which the IC50 amounted to 143 nM. As for `COc1ccc(F)c(C2CCN(C(=O)Cn3nc(C(=O)N4C[C@@H](C)O[C@@H](C)C4)c4c3CCC4)CC2)c1` [Example 156, 2-{3-[(2R,6S)-2,6-dimethylmorpholine-4-carbonyl]-5,6-dihydrocyclopenta[c]pyrazol-1(4H)-yl}-1-[4-(2-fluoro-5-methoxyphenyl)piperidin-1-yl]ethan-1-one], the IC50 was 149 nM. Under `C[C@@H]1CN(C(=O)c2nn(CC(=O)N3CCC(c4ccccc4Cl)CC3)c3c2CCC3)C[C@H](C)O1` [Example 157, 1-[4-(2-chlorophenyl)piperidin-1-yl]-2-{3-[(2R,6S)-2,6-dimethylmorpholine-4-carbonyl]-5,6-dihydrocyclopenta[c]pyrazol-1(4H)-yl}ethan-1-one] stands 150 nM; under `Cc1cccc(F)c1C1CCN(C(=O)Cn2nc(C(=O)N3C[C@@H](C)O[C@@H](C)C3)c3c2CCC3)CC1` [Example 158, 2-{3-[(2R,6S)-2,6-dimethylmorpholine-4-carbonyl]-5,6-dihydrocyclopenta[c]pyrazol-1(4H)-yl}-1-[4-(2-fluoro-6-methylphenyl)piperidin-1-yl]ethan-1-one], 153 nM. For the compound `C[C@@H]1CN(C(=O)c2nn(CC(=O)N3CCC(c4cccc(C(C)(F)F)c4)CC3)c3c2CCC3)C[C@H](C)O1` [Example 159, 1-{4-[3-(1,1-difluoroethyl)phenyl]piperidin-1-yl}-2-{3-[(2R,6S)-2,6-dimethylmorpholine-4-carbonyl]-5,6-dihydrocyclopenta[c]pyrazol-1(4H)-yl}ethan-1-one], the 50% inhibitory concentration (IC50) stood at 156 nM. Under `C[C@@H]1CN(C(=O)c2nn(CC(=O)N3CCC(c4cccc(OC(F)(F)F)c4)CC3)c3c2CCC3)C[C@H](C)O1` [Example 160, 2-{3-[(2R,6S)-2,6-dimethylmorpholine-4-carbonyl]-5,6-dihydrocyclopenta[c]pyrazol-1(4H)-yl}-1-{4-[3-(trifluoromethoxy)phenyl]piperidin-1-yl}ethan-1-one] stands 162 nM; under `C[C@@H]1CN(C(=O)c2nn(CC(=O)N3CCC(c4ccc(C(F)(F)F)c(F)c4)CC3)c3c2CCC3)C[C@H](C)O1` [Example 161, 2-{3-[(2R,6S)-2,6-dimethylmorpholine-4-carbonyl]-5,6-dihydrocyclopenta[c]pyrazol-1(4H)-yl}-1-{4-[3-fluoro-4-(trifluoromethyl)phenyl]piperidin-1-yl}ethan-1-one], 165 nM; under `Cc1cc(C(F)(F)F)ccc1C1CCN(C(=O)Cn2nc(C(=O)N3C[C@@H](C)O[C@@H](C)C3)c3c2CCC3)CC1` [Example 162, 2-{3-[(2R,6S)-2,6-dimethylmorpholine-4-carbonyl]-5,6-dihydrocyclopenta[c]pyrazol-1(4H)-yl}-1-{4-[2-methyl-4-(trifluoromethyl)phenyl]piperidin-1-yl}ethan-1-one], 173 nM. As for `C[C@@H]1CN(C(=O)c2nn(CC(=O)N3CCC(c4ccccc4OC(F)(F)F)CC3)c3c2CCC3)C[C@H](C)O1` [Example 163, 2-{3-[(2R,6S)-2,6-dimethylmorpholine-4-carbonyl]-5,6-dihydrocyclopenta[c]pyrazol-1(4H)-yl}-1-{4-[2-(trifluoromethoxy)phenyl]piperidin-1-yl}ethan-1-one], the IC50 amounted to 177 nM.

`C[C@@H]1CN(C(=O)c2nn(CC(=O)N3CCC(c4cccc(CC(F)(F)F)c4)CC3)c3c2CCC3)C[C@H](C)O1` [Example 164, 2-{3-[(2R,6S)-2,6-dimethylmorpholine-4-carbonyl]-5,6-dihydrocyclopenta[c]pyrazol-1(4H)-yl}-1-{4-[3-(2,2,2-trifluoroethyl)phenyl]piperidin-1-yl}ethan-1-one]: the IC50 came out at 206 nM.

In the case of `C[C@@H]1CN(C(=O)c2nn(CC(=O)N3CCC(c4ccc(F)cc4F)CC3)c3c2CCC3)C[C@H](C)O1` [Example 165, 1-[4-(2,4-difluorophenyl)piperidin-1-yl]-2-{3-[(2R,6S)-2,6-dimethylmorpholine-4-carbonyl]-5,6-dihydrocyclopenta[c]pyrazol-1(4H)-yl}ethan-1-one], the half-maximal inhibitory concentration (IC50) stood at 234 nM. For `C[C@@H]1CN(C(=O)c2nn(CC(=O)N3CCC(c4cc(Cl)ccc4F)CC3)c3c2CCC3)C[C@H](C)O1` [Example 166, 1-[4-(5-chloro-2-fluorophenyl)piperidin-1-yl]-2-{3-[(2R,6S)-2,6-dimethylmorpholine-4-carbonyl]-5,6-dihydrocyclopenta[c]pyrazol-1(4H)-yl}ethan-1-one], the IC50 came out at 261 nM.

Turning to `C[C@@H]1CN(C(=O)c2nn(CC(=O)N3CCC(c4cc(Cl)cc(Cl)c4)CC3)c3c2CCC3)C[C@H](C)O1` [Example 167, 1-[4-(3,5-dichlorophenyl)piperidin-1-yl]-2-{3-[(2R,6S)-2,6-dimethylmorpholine-4-carbonyl]-5,6-dihydrocyclopenta[c]pyrazol-1(4H)-yl}ethan-1-one], the IC50 came out at 274 nM. As for `CC(C)c1ccc(C2CCN(C(=O)Cn3nc(C(=O)N4C[C@@H](C)O[C@@H](C)C4)c4c3CCC4)CC2)cc1` [Example 168, 2-{3-[(2R,6S)-2,6-dimethylmorpholine-4-carbonyl]-5,6-dihydrocyclopenta[c]pyrazol-1(4H)-yl}-1-{4-[4-(propan-2-yl)phenyl]piperidin-1-yl}ethan-1-one], the concentration for half-maximal inhibition (IC50) came out at 296 nM. Regarding `C[C@@H]1CN(C(=O)c2nn(CC(=O)N3CCC(c4ccc(C(F)(F)F)c(Cl)c4)CC3)c3c2CCC3)C[C@H](C)O1` [Example 169, 1-{4-[3-chloro-4-(trifluoromethyl)phenyl]piperidin-1-yl}-2-{3-[(2R,6S)-2,6-dimethylmorpholine-4-carbonyl]-5,6-dihydrocyclopenta[c]pyrazol-1(4H)-yl}ethan-1-one], the 50% inhibitory concentration (IC50) was 329 nM.

(Values after patent publication US12091405B2, “Substituted pyrazole compounds as indoleamine 2,3-dioxygenase inhibitors” (Merck Sharp & Dohme LLC, priority 2018, dated 2024).)
